IC50 data for 1 compound are collected here from patent US12545677B2, “Compounds useful as factor XIa inhibitors” (JANSSEN PHARMACEUTICA NV, priority 2020, dated 2026).

Assay in all cases: Human liver microsomes CYP450 cocktail inhibition assay
Common to all, as to type: in vitro ADME

The target of one test is T1, CYP2C9 (Homo sapiens, UniProt P11712).
T1 construct: Frozen human liver microsomes (HLM) were thawed at 37° C; from tissue; host or cells: human liver microsomes
To be noted: HLM 0.2 mg/ml, 10 mins; read-out: Calculated IC50, HLM 2C9. The text has this: (§1) Human Liver Microsomes CYP450 Cocktail Inhibition Assay
(§2) The cocktail DDI assay was used to evaluate test compound(s) for potential to cause drug-drug interactions via inhibition of clinically important P450 isoforms (CYP1A2, 2C8, 2C9, 2C19, 2D6, and 3A4) in early discovery. Discrimination of the inhibitory potential of the test compound towards each isoform was achieved by using a cocktail of specific probe substrates which are known to be selectively metabolized to defined metabolites by the isoforms under investigation. For example, dextromethorphan is known to be demethylated exclusively by the 2D6 isoform. Co-incubation of the probe substrates in human liver microsomes (HLM) with the test compound(s) at a range of inhibitor concentrations allows calculation of IC50 values for multiple CYP isoforms simultaneously and therefore offers a higher throughput compared to a traditional single probe assay.
(§3) Methods and Procedures: Final protein concentration in the incubation was 0.2 mg/ml and incubation time was 10 mins. The final total solvent in the incubation was 0.15% DMSO and 0.8% acetonitrile. The assay was automated on a Beckman Biomek FX automated liquid handler with multi-channel pipetting tools (8-channel and 96-channel), on deck reagent cooling capabilities and integrated automated Cytomat incubator (37° C.) with plate shaking facilities (Kendro).
(§4) Test compounds were supplied as 5 mM DMSO stock solutions. 0.1 M Phosphate buffer (pH7.4) was prepared in house using Na2HPO4·12H2O and KH2PO4.
(§5) Frozen human liver microsomes (HLM) were thawed at 37° C. while agitating regularly until the whole volume was thawed, then held on ice. Based on the protein concentration of the HLM batch, the suspension was further diluted in assay buffer and the probe substrate mixture (substrate for each CYP isoform) to yield the final protein concentration of 0.2 mg/mL.
(§6) Probe substrates were prepared separately in assay buffer (phenacetin, tolbutamide, S-mephenytoin, dextromethorphan) or water (amodiaquine, midazolam). These were combined (at the appropriate conc per substrate) with HLM and assay buffer to yield the final Enzyme/Substrate mix.
(§7) The final total solvent in the incubation was 0.15% DMSO and 0.8% acetonitrile. NADPH (5.27 mM) was prepared as a solution in assay buffer (Room Temp). The quenching solution containing deuterated analogues of each of the seven probe substrate metabolites was dissolved at an appropriate concentration in acetonitrile.
(§8) Assay procedure: Samples for incubation were prepared by combining appropriate volumes of Enzyme/Substrate mix (80 μl) and stock solutions of test or reference inhibitors (1 μl solutions added from a dilution series). Following a pre-incubation period (typically, 10 minutes), the reaction was initiated by the addition of NADPH solution (19 μl, 5.27 mM). The samples were incubated at 37° C. for 10 mins. The incubations were quenched by the addition of 1.6 volumes of chilled quenching solution. The incubations were then centrifuged for 10 minutes at 4000 rpm at 4° C. A defined volume of the supernatant (S/N) was transferred into a separate container and diluted with water (S/N: Water=60 μL/180 μL). Each sample was injected onto a UPLC/MS system using an LC/MS method selective for the simultaneous measurement of all seven probe substrate metabolites (and associated deuterated internal standards).
(§9) Calculations and Formulas: Percentage activity was calculated as % activity=(Ri/R)*100 • where Ri and R were the metabolite to internal standard peak area ratios in the presence and absence of TC, respectively. The percentage activity data were then plotted against log (TC concentration) and a curve was fitted to the data to return the IC50 using a data reduction tool within 3DX. […]

The target in the next test is T2, CYP2D6 (Homo sapiens, UniProt P10635).
T2 construct: Frozen human liver microsomes (HLM) were thawed at 37° C; from tissue; host or cells: human liver microsomes
T2 sequence (P10635 whole entry): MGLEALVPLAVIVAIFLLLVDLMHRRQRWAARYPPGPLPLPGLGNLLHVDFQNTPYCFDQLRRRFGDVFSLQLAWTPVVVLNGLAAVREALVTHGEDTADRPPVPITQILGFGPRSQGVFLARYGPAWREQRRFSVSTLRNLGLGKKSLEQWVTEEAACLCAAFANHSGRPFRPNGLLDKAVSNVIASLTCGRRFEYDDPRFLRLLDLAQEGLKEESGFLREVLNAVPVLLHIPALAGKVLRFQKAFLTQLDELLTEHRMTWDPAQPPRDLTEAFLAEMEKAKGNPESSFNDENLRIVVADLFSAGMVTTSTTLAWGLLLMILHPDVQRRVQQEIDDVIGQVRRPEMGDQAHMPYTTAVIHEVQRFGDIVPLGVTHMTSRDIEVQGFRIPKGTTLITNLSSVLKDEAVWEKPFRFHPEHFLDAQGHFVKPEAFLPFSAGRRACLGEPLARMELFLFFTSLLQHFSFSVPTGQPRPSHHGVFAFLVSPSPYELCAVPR
To be noted: HLM 0.2 mg/ml, 10 mins; read-out: Calculated IC50, HLM 2D6.
Excerpt: as §1, §2, §3, §4, §5, §6, §7, §8, §9

For another test, the target named is T3, CYP2C8 (Homo sapiens, UniProt P10632).
T3 construct: Frozen human liver microsomes (HLM) were thawed at 37° C; from tissue; host or cells: human liver microsomes
T3 sequence (P10632 1-490): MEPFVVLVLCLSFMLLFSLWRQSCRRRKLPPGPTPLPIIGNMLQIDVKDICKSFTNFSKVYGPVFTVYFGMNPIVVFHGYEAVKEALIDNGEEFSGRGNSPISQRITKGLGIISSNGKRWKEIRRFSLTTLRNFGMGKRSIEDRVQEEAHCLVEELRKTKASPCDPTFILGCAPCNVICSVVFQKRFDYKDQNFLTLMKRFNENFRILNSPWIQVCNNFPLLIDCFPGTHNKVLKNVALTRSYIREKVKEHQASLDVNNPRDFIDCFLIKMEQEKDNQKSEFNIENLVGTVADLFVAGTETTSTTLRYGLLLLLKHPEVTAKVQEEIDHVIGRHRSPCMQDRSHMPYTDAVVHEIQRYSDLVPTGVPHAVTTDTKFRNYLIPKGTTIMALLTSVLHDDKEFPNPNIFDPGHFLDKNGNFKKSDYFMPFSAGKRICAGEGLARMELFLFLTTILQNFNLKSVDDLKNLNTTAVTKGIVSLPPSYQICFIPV
To be noted: HLM 0.2 mg/ml, 10 mins; read-out: Calculated IC50, HLM 2C8.
Excerpt: as §1, §2, §3, §4, §5, §6, §7, §8, §9

The next test addresses T4, CYP3A4 (Homo sapiens, UniProt P08684).
T4 construct: Frozen human liver microsomes (HLM) were thawed at 37° C; from tissue; host or cells: human liver microsomes
Particulars: HLM 0.2 mg/ml, 10 mins; read-out: Calculated IC50, HLM 3A4.
Excerpt: as §1, §2, §3, §4, §5, §6, §7, §8, §9

In a further test the target is T5, CYP2C19 (Homo sapiens, UniProt P33261).
T5 construct: Frozen human liver microsomes (HLM) were thawed at 37° C; from tissue; host or cells: human liver microsomes
T5 sequence (P33261 whole entry): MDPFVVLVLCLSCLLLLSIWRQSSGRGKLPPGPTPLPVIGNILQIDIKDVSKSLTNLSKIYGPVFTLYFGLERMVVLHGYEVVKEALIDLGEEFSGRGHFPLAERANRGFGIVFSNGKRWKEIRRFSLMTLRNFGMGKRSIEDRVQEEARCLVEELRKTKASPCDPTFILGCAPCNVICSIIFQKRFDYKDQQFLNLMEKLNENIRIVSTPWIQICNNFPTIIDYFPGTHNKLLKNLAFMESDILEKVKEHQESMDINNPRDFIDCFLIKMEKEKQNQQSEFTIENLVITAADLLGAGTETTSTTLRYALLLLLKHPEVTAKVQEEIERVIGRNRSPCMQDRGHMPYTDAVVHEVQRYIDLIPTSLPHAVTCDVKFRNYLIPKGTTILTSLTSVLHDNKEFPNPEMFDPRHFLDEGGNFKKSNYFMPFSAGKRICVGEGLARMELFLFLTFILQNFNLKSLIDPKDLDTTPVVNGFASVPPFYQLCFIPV
Particulars: HLM 0.2 mg/ml, 10 mins; read-out: Calculated IC50, HLM 2C19.
Excerpt: as §1, §2, §3, §4, §5, §6, §7, §8, §9

For another test, the target named is T6, CYP1A2 (Homo sapiens, UniProt P05177).
T6 construct: Frozen human liver microsomes (HLM) were thawed at 37° C; from tissue; host or cells: human liver microsomes
T6 sequence (P05177 1-516): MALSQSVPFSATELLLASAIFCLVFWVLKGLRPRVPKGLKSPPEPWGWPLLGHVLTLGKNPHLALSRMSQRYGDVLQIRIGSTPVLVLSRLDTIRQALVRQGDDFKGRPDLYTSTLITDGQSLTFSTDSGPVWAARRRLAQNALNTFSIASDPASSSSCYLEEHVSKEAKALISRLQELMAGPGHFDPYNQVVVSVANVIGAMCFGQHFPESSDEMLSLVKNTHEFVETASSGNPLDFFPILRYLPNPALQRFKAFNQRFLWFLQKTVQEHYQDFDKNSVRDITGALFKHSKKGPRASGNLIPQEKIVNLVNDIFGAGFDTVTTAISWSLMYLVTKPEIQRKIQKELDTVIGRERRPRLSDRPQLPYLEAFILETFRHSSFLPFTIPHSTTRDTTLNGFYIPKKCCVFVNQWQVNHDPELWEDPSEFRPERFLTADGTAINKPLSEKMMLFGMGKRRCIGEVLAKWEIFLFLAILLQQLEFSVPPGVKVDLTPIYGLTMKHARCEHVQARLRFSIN
Particulars: HLM 0.2 mg/ml, 10 mins; read-out: Calculated IC50, HLM 1A2.
Excerpt: as §1, §2, §3, §4, §5, §6, §7, §8, §9

T4 sequence (P08684 whole entry): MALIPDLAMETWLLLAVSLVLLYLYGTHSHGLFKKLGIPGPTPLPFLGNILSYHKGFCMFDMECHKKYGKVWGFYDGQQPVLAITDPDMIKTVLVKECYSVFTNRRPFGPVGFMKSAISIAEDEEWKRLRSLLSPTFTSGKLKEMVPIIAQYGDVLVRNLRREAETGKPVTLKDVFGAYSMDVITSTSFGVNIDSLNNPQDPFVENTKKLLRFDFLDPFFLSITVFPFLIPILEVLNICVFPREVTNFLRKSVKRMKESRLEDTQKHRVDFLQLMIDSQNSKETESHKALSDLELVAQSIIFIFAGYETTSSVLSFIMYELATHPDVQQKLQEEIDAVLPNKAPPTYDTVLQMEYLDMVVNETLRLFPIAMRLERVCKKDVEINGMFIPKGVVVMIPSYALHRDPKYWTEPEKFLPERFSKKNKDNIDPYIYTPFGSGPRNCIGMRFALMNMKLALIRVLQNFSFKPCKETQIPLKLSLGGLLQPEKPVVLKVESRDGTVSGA
T1 sequence (P11712 whole entry): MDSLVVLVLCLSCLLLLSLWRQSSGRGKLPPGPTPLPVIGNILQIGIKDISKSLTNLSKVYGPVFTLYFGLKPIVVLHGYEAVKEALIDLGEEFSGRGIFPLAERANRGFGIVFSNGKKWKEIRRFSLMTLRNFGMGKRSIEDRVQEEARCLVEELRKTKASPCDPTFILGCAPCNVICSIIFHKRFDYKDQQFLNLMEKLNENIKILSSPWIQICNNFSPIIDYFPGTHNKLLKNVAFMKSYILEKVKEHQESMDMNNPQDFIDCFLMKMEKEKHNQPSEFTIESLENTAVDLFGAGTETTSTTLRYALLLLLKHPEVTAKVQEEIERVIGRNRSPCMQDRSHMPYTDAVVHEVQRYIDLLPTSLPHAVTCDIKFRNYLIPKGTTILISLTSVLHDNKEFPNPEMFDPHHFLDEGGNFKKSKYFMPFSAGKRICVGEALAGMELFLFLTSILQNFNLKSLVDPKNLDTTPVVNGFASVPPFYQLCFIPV

By IC50 is commonly meant the point on the concentration scale where inhibition reaches its midpoint. For `O=C1C=C(c2c(-n3cnnn3)ccc(Cl)c2F)C[C@H]2CC[C@@H](c3ncc(-c4ccnc(CO)c4F)[nH]3)N12` [Compound of formula (I-A), (3S,8aR)-7-(3-Chloro-2-fluoro-6-(1H-tetrazol-1-yl)phenyl)-3-(5-(3-fluoro-2-(hydroxymethyl)pyridin-4-yl)-1H-imidazol-2-yl)-2,3,8,8a-tetrahydroindolizin-5(1H)-one], the IC50 at CYP2C9 was greater than 20 µM; at CYP2D6, greater than 20 µM; on CYP2C8 it was greater than 20 µM; on CYP3A4, 14.4 µM; at CYP2C19, greater than 20 µM; at CYP1A2 it was greater than 20 µM.
